Source: patent US20100004333A1, “COMPOSITIONS AND METHODS FOR TREATING CARDIOVASCULAR DISORDERS” (priority 2004, published 2010)

What was measured:
[1] = system: aortic rings from rabbits; assay: HOCl-induced endothelial dysfunction in aortic rings from rabbits fed supplemented diet; type: in vivo, New Zealand White rabbits; conditions: dietary 1% probucol, 0.2% DTBP or 0.02% BP, 4 weeks; for Relaxation to ACh of aortic rings after 400 μM HOCl: FIG. 6A; for Tissue cGMP of aortic rings after 400 μM HOCl and 1 μM ACh: FIG. 6B
Experimental: (§1) All other reagents were of the highest quality available. Buffers were routinely filtered, argon-flushed and stored at 4° C. prior to use. Solutions of HOCl were prepared freshly before use by diluting reagent HOCl (Aldrich) into phosphate buffer (250 mM, pH 7.0) and standardizing with ε235 nm˜100 M^−1cm^−1 (hypochlorous acid) and ε290 nm˜300 M^−1cm^−1 (hypochlorite), as described in Journal of Physical Chemistry 1966, 70:3798-3805. Animals: New Zealand White rabbits (2.5-3 kg) were obtained from a commercial farm (Wauchope, NSW Australia) and housed individually for the entire study period. […] Feed and water were provided ad libitum for a period of 4 weeks judged to be sufficient time for circulating drug levels to reach a maximum (data not shown). […] The local ethics committee approved the study. Vascular reactivity: Perfused rabbit aortas were harvested and vascular reactivity studies performed as described in Circulation 2003, 107:2031-2036. Briefly, within 2 h of isolation, ring segments ˜5 mm in length were mounted in a myobath system (World Precision Instruments, Sarasota, Fla.) containing 20 mL of Krebs solution aerated at 37° C. with 5% CO2(g), and the dilatory response of half maximally norepinephrine pre-constricted rings to incremental doses of ACh (10^−9-10^−5 mol/L) determined. Where indicated, reagent HOCl (final concentration 400 μM) was added to the Krebs solution and the rings incubated for 5 min prior to thorough washing, pre-constriction and assessment of vessel relaxation. In some studies rings were incubated with probucol or DTBP for 10 min, washed thoroughly and then exposed to HOCl prior to assessing endothelium-dependent relaxation. A maximum of three consecutive sequences of constriction/relaxation were performed for each ring. Preparation of Aortic Homogenates: Aortic Rings Used in the Vascular Function Studies were removed and immediately cut into small pieces, frozen in liquid nitrogen, and then pulverized and homogenized as described. An aliquot (50 μL) of homogenate was removed for protein determination (BCA assay, Sigma) and the remainder extracted into methanol/hexane (5:1, v/v), the resulting hexane fraction dried and the residue suspended in isopropanol for analysis of probucol and its oxidation products. For cGMP determinations, aortic segments were treated with vehicle (control) or HOCl (400 μM) before addition of 1 μM ACh in the presence of 200 μM 3-isobutyl-1-methylxanthine and measurement of cGMP in the homogenate using a kit (Cayman Chemical, Ann Arbor, Mich.). Probucol oxidation studies: Probucol is a highly lipophilic compound (partition coefficient between octanol and water=[…]) that readily distributes into lipoproteins. To mimic the biological situation, oxidation reactions were therefore performed with probucol (or DTBP) dissolved in hexane (2 mL) to which aliquots of HOCl were added to give the final concentrations indicated. The heterogeneous mixtures were shaken vigorously at 37° C. for 60 min, then placed on ice after adding 1 mL water, the hexane phase removed, dried under vacuum and resuspended in isopropanol (200 μL) for HPLC analyses (see below). The aqueous phase was analyzed for the content of sulfate anion (SO4^2−) by ion exchange chromatography (see below). Analytical analyses: Probucol, DTBP, BP and DPQ were analyzed by gradient reversed-phase HPLC and quantified by peak area comparison with authentic standards. Under the conditions used, BP, DTBP, probucol and DPQ eluted at 12.5, 19.2, 20.8 and 28.4 min, respectively. Other oxidation products resolved by this HPLC system were also quantified by peak area comparison, using analytically pure samples obtained from semi-preparative (LC-18, 20 mm×25 cm, 5 μm) fractionation of the reaction mixture. Isolated samples were dried under vacuum, re-dissolved to a known concentration and assessed for purity by analytical HPLC (LC-18, 4.6 mm×25 cm, 5 μm) in combination with mass spectrometry (see below). […]

[2] = Total aortic drug concentration in apoE−/− mice, 5 months; type: in vivo
Text: ApoE−/− mouse model. Four groups of male apoE−/− mice (8-10 weeks, Animal Resources Centre, Perth, Australia) were fed a high fat diet based on Harlan Teklad diet TD88137±1% (wt/wt) probucol (96% purity, a gift from AstraZeneca, Sweden), 0.02% DTBP, or 0.02% BP (Polysciences, Warrington, Pa.) for 5 months. Tissue harvesting and analyses were done as described in Examples 1 and 3, using 15 and 10 mice of each group for biochemical and histological analyses, respectively. Histology and immunohistochemistry. Aortic lesion assessment was carried out at four sites (sinus, arch, thoracic and abdominal aorta) as described in Example 1. Immediately adjacent sections were employed for immunohistochemistry, using Mac-3 (macrophages, dilution 1:200, DAKO), PCNA (cell proliferation, dilution 1:500, DAKO) and anti-rat HO-1 monoclonal antibody (dilution 1:50, Santa Cruz) with avidin-biotin-horseradish peroxidase for signal detection (Vectorstain Elite ABC Kit, Vector Laboratories). Apoptosis was assessed using the TUNEL assay kit (Roche) according to the manufacture's instructions. Digital images were taken for quantitative morphometric analysis. Mac-3^+ areas were determined using Adobe Photoshop V6.0 by tracing. Total cell profiles, TUNEL^+ and PCNA^+ cells were counted manually at high magnification (40× objective). A single operator using coded samples performed all analyses blinded. Heme oxygenase. Heme oxygenase activity was determined in microsomes prepared from homogenized aortic tissue and assessed by HPLC as described in Circulation 2004, 110: 1855-1860. Statistics. All data are expressed as mean±SEM. One-way ANOVA and the student-Newman-Keul's test were used to evaluate differences between groups, with P<0.05 considered significant.

[3] = system: New Zealand White rabbits; assay: Re-endothelialization and vascular reactivity after aortic balloon injury in rabbits; type: in vivo; conditions: for Endothelium-dependent relaxation (acetylcholine) / Tissue content of cGMP in response to acetylcholine: aortic rings six weeks after injury; for Endothelium-dependent relaxation (acetylcholine): FIG. 15c; for Tissue content of cGMP in response to acetylcholine: FIG. 15d; for Regeneration of endothelium (length covered by CD31+ cells) / Intima-to-media ratio at CD31-positive sites: six weeks after injury; for Regeneration of endothelium (length covered by CD31+ cells): FIG. 15b; for Intima-to-media ratio at CD31-positive sites: not shown
[4] = system: aortic rings from rabbits; type: cell-based, New Zealand White rabbits; conditions: for Protection of aortic rings from HOCl-induced loss of response to ACh: 10 min pre-incubation with 10, 25 or 100 μM, FIG. 7
Experimental: as §1, with “Preparation of Aortic Homogenates: Aortic Rings Used in the Vascular Function Studies were removed and immediately cut into small pieces, frozen in liquid nitrogen, and then pulverized and homogenized as described. An aliquot (50 μL) of homogenate was removed for protein determination (BCA assay, Sigma) and the remainder extracted into methanol/hexane (5:1, v/v), the resulting hexane fraction dried and the residue suspended in isopropanol for analysis of probucol and its oxidation products. For cGMP determinations, aortic segments were treated with vehicle (control) or HOCl (400 μM) before addition of 1 μM ACh in the presence of 200 μM 3-isobutyl-1-methylxanthine and measurement of cGMP in the homogenate using a kit (Cayman Chemical, Ann Arbor, Mich.).” left out, “To mimic the biological situation, oxidation reactions were therefore performed with probucol (or DTBP) dissolved in hexane (2 mL) to which aliquots of HOCl were added to give the final concentrations indicated. The heterogeneous mixtures were shaken vigorously at 37° C. for 60 min, then placed on ice after adding 1 mL water, the hexane phase removed, dried under vacuum and resuspended in isopropanol (200 μL) for HPLC analyses (see below).” left out, “Under the conditions used, BP, DTBP, probucol and DPQ eluted at 12.5, 19.2, 20.8 and 28.4 min, respectively.” left out

[5] = system: New Zealand White rabbits; assay: Rabbit aortic balloon-injury model with heme oxygenase blocked by tin protoporphyrin; type: in vivo; conditions: plus tin protoporphyrin 7.5 mg/kg i.p. every other day; for Ability to inhibit intimal thickening when heme oxygenase is blocked: nine weeks, FIG. 19a; for Ability to promote re-endothelialization when heme oxygenase is blocked: FIG. 19b; for Ability to inhibit vascular smooth muscle cell proliferation when heme oxygenase is blocked: FIG. 19c
Experimental: Inhibition of heme oxygenase activity. Three groups of male New Zealand White rabbits (n=6 per group) that were fed 100 g per day of normal chow±1% probucol or 0.02% DTBP (wt/wt) received intraperitoneal injection of tin protoporphyrin (SnPP, Frontier Scientific, 7.5 mg/kg) every other day as described in American Journal of Physiology, Heart and Circulatory Physiology 2000; 278:H623-H632 for the entire nine week duration of the experiment, with balloon injury at the end of week three and lesion assessment after a further six weeks.

SMILES	Relaxation to ACh of aortic rings after 400 μM HOCl [1]	Tissue cGMP of aortic rings after 400 μM HOCl and 1 μM ACh [1]	Total aortic drug concentration ([2]; male, apoE−/−, mouse, in vivo, 5 months) [nmol/mg protein]	Bioavailability relative to probucol ([2]; mouse, in vivo)	Endothelium-dependent relaxation (acetylcholine) [3]	Tissue content of cGMP in response to acetylcholine [3]	Regeneration of endothelium (length covered by CD31+ cells) [3]	Intima-to-media ratio at CD31-positive sites [3]	Protection of aortic rings from HOCl-induced loss of response to ACh ([4]; washed, then 400 μM HOCl)	Ability to inhibit intimal thickening when heme oxygenase is blocked [5]	Ability to promote re-endothelialization when heme oxygenase is blocked [5]	Ability to inhibit vascular smooth muscle cell proliferation when heme oxygenase is blocked [5]	Total aortic drug concentration ([2]; apoE−/− mice, high fat diet 5 months, 1% probucol, 0.02% DTBP, 0.02% BP) [nmol/mg protein]	Concentration at which full protection from HOCl-induced loss of response to ACh was seen ([4]; 10 min pre-incubation, washed, then 400 μM HOCl) [µM]	Tissue cGMP in response to ACh ([4]; rings pre-treated with 100 μM, FIG. 7B)
CC(C)(C)c1cc(-c2cc(C(C)(C)C)c(O)c(C(C)(C)C)c2)cc(C(C)(C)C)c1O [BP, 3,3′,5,5′-tetra-tert-butyl-4,4′-bisphenol]	responded to HOCl indistinguishably from control	ineffective	–	–	–	–	–	–	–	–	–	–	–	–	–
CC(C)(C)c1cc(SSc2cc(C(C)(C)C)c(O)c(C(C)(C)C)c2)cc(C(C)(C)C)c1O [DTBP, 4,4′-dithiobis(2,6-di-tert-butyl-phenol)]	preserved the vascular function of isolated rings to an extent comparable to that seen with probucol	increase in tissue cGMP	7.1±1.4	clearly superior bioavailability compared to probucol	enhanced	enhanced	significantly enhanced	significantly decreased	protected aortic rings from HOCl-induced dysfunction when added in vitro	completely prevented	completely prevented	completely prevented	–	–	–
CC(C)(Sc1cc(C(C)(C)C)c(O)c(C(C)(C)C)c1)Sc1cc(C(C)(C)C)c(O)c(C(C)(C)C)c1 [probucol]	retained responsiveness to ACh	greater content of cGMP	–	–	enhanced	enhanced	significantly enhanced	significantly decreased	protected the vessels from HOCl-induced loss of response to ACh in a concentration dependent manner	completely prevented	completely prevented	completely prevented	21.8±8.4	100	increased tissue content of cGMP
